US20260234157A1, “COMPOUND AND METHOD FOR TARGETED DEGRADATION OF ANDROGEN RECEPTOR” (Gan & Lee Pharmaceuticals Co., Ltd., priority 2023, published 2026)
pIC50: −log10 of the molar value. Where two headings read alike, the source gives them in different places.

Tests used:
Type in all cases: cell-based
VCaP cells = assay: Inhibition of proliferation of VCaP cells (WST-8); settings: Homo sapiens, read-out: IC50 for inhibiting the proliferation of VCaP cells
Experimental: The inhibitory activity of the compounds disclosed in the present disclosure on the proliferation of VCaP cells
On the first day of the experiment, […] were inoculated in 96 well plates at a density of 15000 cells per well using DMEM medium containing 10% fetal bovine serum, with 100 μL of cell suspension per well. The cells were cultured in a cell culture incubator with 5% CO2 at 37° C. overnight. […] On the ninth day, 96 well plates were taken out, and 20 μL of WST-8 (Beytime, C0040) reagent was added to each well.

LNCaP FGC cells = assay: Inhibition of proliferation of LNCaP cells (WST-8); settings: Homo sapiens, LNCaP, 96 h
Experimental: The cells were cultured in a cell culture incubator with 5% CO2 at 37° C. overnight. […] On the sixth day, 96 well plates were taken out, and 20 μL of WST-8 (Beytime, C0040) reagent was added to each well.

AR protein = target: T1, AR protein (Homo sapiens, UniProt P10275, T878A); assay: Degradation of AR protein in LNCaP cells (Western blot); settings: for inhibition at 0.01 µM: read-out: Degradation rates of the AR protein in LNCaP cells, 10 nM (%); for inhibition at 0.1 µM: read-out: Degradation rates of the AR protein in LNCaP cells, 100 nM (%)
T1 construct: degradation activity of the compounds disclosed in the present disclosure on AR protein in LNCaP cells; host or cells: LNCaP FGC
T1 sequence (P10275 1-920 T878A): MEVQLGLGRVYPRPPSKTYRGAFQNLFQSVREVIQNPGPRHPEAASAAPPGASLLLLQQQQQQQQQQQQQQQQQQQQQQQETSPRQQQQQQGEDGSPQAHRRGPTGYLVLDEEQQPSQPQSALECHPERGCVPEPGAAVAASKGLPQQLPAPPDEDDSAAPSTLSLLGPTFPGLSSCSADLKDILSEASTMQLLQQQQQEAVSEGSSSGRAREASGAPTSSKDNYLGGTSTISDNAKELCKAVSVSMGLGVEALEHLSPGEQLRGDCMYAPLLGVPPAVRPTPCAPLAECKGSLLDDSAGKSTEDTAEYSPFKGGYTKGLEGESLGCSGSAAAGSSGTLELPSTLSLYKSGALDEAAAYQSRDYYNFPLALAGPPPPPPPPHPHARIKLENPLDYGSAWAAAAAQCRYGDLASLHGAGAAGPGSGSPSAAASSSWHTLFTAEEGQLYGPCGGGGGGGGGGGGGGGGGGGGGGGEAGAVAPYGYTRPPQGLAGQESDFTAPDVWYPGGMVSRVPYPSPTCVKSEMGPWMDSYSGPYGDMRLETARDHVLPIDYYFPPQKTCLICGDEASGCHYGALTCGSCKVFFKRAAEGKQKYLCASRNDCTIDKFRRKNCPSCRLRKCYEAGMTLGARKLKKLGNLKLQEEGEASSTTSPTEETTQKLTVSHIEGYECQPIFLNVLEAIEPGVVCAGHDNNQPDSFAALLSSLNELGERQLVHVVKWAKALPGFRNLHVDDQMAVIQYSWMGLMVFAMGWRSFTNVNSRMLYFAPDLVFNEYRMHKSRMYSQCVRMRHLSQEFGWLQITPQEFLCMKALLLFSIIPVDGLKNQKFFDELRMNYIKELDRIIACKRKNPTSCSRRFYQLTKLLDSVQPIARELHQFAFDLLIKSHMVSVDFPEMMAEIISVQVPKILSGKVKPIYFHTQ
Outline: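 AR assessed by SDS-PAGE/Western blot with infrared imaging; band greyscale normalised to GAPDH gave percent degradation.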

[1] = VCaP cells, 168 hours, WST-8 absorbance at 450 nm
[2] = LNCaP FGC cells, 96 hours, WST-8 absorbance at 450 nm, read-out: IC50 for inhibiting the proliferation of LNCaP cells
[3] = LNCaP cells, compound 10 nM, 8 hours, Western blot grayscale, GAPDH internal reference
[4] = LNCaP cells, compound 100 nM, 8 hours, Western blot grayscale, GAPDH internal reference
[5] = read-out: IC50 for inhibiting the proliferation of LNCaP cells, LNCaP FGC cells, 96 hours, WST-8 absorbance at 450 nm

N#Cc1ccc(O[C@H]2CC[C@H](NC(=O)c3ccc(N4CCN(C5CCC6(CCc7cc8c(cc7O6)C(=O)N(C6CCC(=O)NC6=O)C8=O)CC5)CC4)nn3)CC2)cc1Cl (stereo partly drawn) [Compound 29]
pIC50 (VCaP cells; [1]): 5.92 | pIC50 (LNCaP FGC cells; [2]): 6.03 | inhibition at 0.01 µM (AR protein; [3]): 35% | inhibition at 0.1 µM (AR protein; [4]): 63%

N#Cc1ccc(O[C@H]2CC[C@H](NC(=O)c3ccc(N4CC(N5CCC6(CC5)Oc5cc7c(cc5CC6(F)F)C(=O)N(C5CCC(=O)NC5=O)C7=O)C4)nn3)CC2)cc1Cl (stereo partly drawn) [Compound 37]
pIC50 (VCaP cells; VCaP, 168 h): 5.49 | pIC50 (LNCaP FGC cells; [5]): 5.34 | inhibition at 0.01 µM (AR protein; LNCaP, 8 h): 5% | inhibition at 0.1 µM (AR protein; LNCaP, 8 h): 29%

N#Cc1ccc(O[C@H]2CC[C@H](NC(=O)c3ccc(N4CCC(N5CCC6(CC5)CC(F)(F)c5cc7c(cc5O6)C(=O)N(C5CCC(=O)NC5=O)C7=O)CC4)nn3)CC2)cc1Cl (stereo partly drawn) [Compound 38]
pIC50 (VCaP cells; VCaP, 168 h): 5.28 | pIC50 (LNCaP FGC cells; [5]): 5.62 | inhibition at 0.01 µM (AR protein; LNCaP, 8 h): 29% | inhibition at 0.1 µM (AR protein; LNCaP, 8 h): 48%

N#Cc1ccc(O[C@H]2CC[C@H](NC(=O)c3ccc(N4CCC5(CC4)COc4cc6c(cc4O5)C(=O)N(C4CCC(=O)NC4=O)C6=O)nn3)CC2)cc1Cl (stereo partly drawn) [Compound 75]
pIC50 (VCaP cells; [1]): 5.13 | pIC50 (LNCaP FGC cells; [2]): 5.22 | inhibition at 0.01 µM (AR protein; [3]): 41% | inhibition at 0.1 µM (AR protein; [4]): 36%

CC1(C)C(=O)N(c2ccc(C#N)c(C(F)(F)F)c2)C(=S)N1c1ccc(C(=O)N2CC[C@@H](CN3CCC4(CC3)COc3cc5c(cc3C4)C(=O)N(C3CCC(=O)NC3=O)C5=O)C2)c(F)c1 (stereo partly drawn) [Compound 83]
pIC50 (VCaP cells; VCaP, 168 h): 5.01 | pIC50 (LNCaP FGC cells; [5]): 5.15

CC1(C)C(=O)N(c2ccc(C#N)c(C(F)(F)F)c2)C(=S)N1c1ccc(C(=O)N2CCC(CN3CCC4(CCc5cc6c(cc5O4)CN(C4CCC(=O)NC4=O)C6=O)CC3)CC2)c(F)c1 (stereo not drawn) [Compound 85]
pIC50 (VCaP cells; VCaP, 168 h): 5.13 | pIC50 (LNCaP FGC cells; [5]): 5.27

CC1(C)C(=O)N(c2ccc(C#N)c(C(F)(F)F)c2)C(=S)N1c1ccc(C(=O)N2CC3(CCC(N4CCC5(CC4)COc4cc6c(cc4C5)C(=O)N(C4CCC(=O)NC4=O)C6=O)CC3)C2)c(F)c1 (stereo not drawn) [Compound 86]
pIC50 (VCaP cells; VCaP, 168 h): 5.60 | pIC50 (LNCaP FGC cells; [5]): 5.34

CC1(C)C(=O)N(c2ccc(C#N)c(C(F)(F)F)c2)C(=S)N1c1ccc(C(=O)N2CCC(CN3CCN(c4cc5c(cc4F)C(=O)N(C4CCC(=O)NC4=O)C5=O)CC3)CC2)c(F)c1 (stereo not drawn) [Compound 87]
pIC50 (VCaP cells; [1]): 5.38 | pIC50 (LNCaP FGC cells; [2]): 5.29

COC1(CN2CC3(CCc4cc5c(cc4O3)C(=O)N(C3CCC(=O)NC3=O)C5=O)C2)CCN(C(=O)c2ccc(N3C(=S)N(c4ccc(C#N)c(C(F)(F)F)c4)C(=O)C3(C)C)cc2F)CC1 (stereo not drawn) [Compound 88]
pIC50 (VCaP cells; [1]): 6.77 | pIC50 (LNCaP FGC cells; [2]): 6.28

COC1(CN2CC3(CCc4cc5c(cc4O3)CN(C3CCC(=O)NC3=O)C5=O)C2)CCN(C(=O)c2ccc(N3C(=S)N(c4ccc(C#N)c(C(F)(F)F)c4)C(=O)C3(C)C)cc2F)CC1 (stereo not drawn) [Compound 89]
pIC50 (VCaP cells; VCaP, 168 h): 6.46 | pIC50 (LNCaP FGC cells; [5]): 5.49

CC1(C)C(=O)N(c2ccc(C#N)c(C(F)(F)F)c2)C(=S)N1c1ccc(C(=O)N2CC3(CC(N4CCC5(CCc6cc7c(cc6O5)C(=O)N(C5CCC(=O)NC5=O)C7=O)CC4)C3)C2)c(F)c1 (stereo not drawn) [Compound 100]
pIC50 (VCaP cells; VCaP, 168 h): 6.21 | pIC50 (LNCaP FGC cells; [5]): 4.55

CC1(C)C(=O)N(c2ccc(C#N)c(C(F)(F)F)c2)C(=S)N1c1ccc(C(=O)N2CC(N3CCC4(CC3)COc3cc5c(cc3C4)C(=O)N(C3CCC(=O)NC3=O)C5=O)C2)c(F)c1 (stereo not drawn) [Compound 112]
pIC50 (VCaP cells; VCaP, 168 h): 5.29 | pIC50 (LNCaP FGC cells; [5]): 5.09

CC1(C)C(=O)N(c2ccc(C#N)c(C(F)(F)F)c2)C(=S)N1c1ccc(C(=O)N2CCC3(CCC(N4CCC5(CC4)COc4cc6c(cc4C5)C(=O)N(C4CCC(=O)NC4=O)C6=O)CC3)CC2)c(F)c1 (stereo not drawn) [Compound 113]
pIC50 (VCaP cells; VCaP, 168 h): 5.55 | pIC50 (LNCaP FGC cells; [5]): 5.25

CC1(CN2CCC3(CC2)COc2cc4c(cc2C3)C(=O)N(C2CCC(=O)NC2=O)C4=O)CCN(C(=O)c2ccc(N3C(=S)N(c4ccc(C#N)c(C(F)(F)F)c4)C(=O)C3(C)C)cc2F)CC1 (stereo not drawn) [Compound 114]
pIC50 (VCaP cells; VCaP, 168 h): 5.48 | pIC50 (LNCaP FGC cells; [5]): 5.12

CC1(C)C(=O)N(c2ccc(C#N)c(C(F)(F)F)c2)C(=S)N1c1ccc(C(=O)N2CCC3(CC2)CC(N2CCC4(CC2)COc2cc5c(cc2C4)C(=O)N(C2CCC(=O)NC2=O)C5=O)C3)c(F)c1 (stereo not drawn) [Compound 123]
pIC50 (VCaP cells; VCaP, 168 h): 5.47 | pIC50 (LNCaP FGC cells; [5]): 5.57

CC1(C)C(=O)N(c2ccc(C#N)c(C(F)(F)F)c2)C(=S)N1c1ccc(C(=O)N2CCC(CN3CC4(CCc5cc6c(cc5O4)CN(C4CCC(=O)NC4=O)C6=O)C3)CC2)c(F)c1 (stereo not drawn) [Compound 124]
pIC50 (VCaP cells; [1]): 5.53 | pIC50 (LNCaP FGC cells; [2]): 5.10

CC1(C)C(=O)N(c2ccc(C#N)c(C(F)(F)F)c2)C(=S)N1c1ccc(C(=O)N2CC[C@H](CN3CCC4(CC3)COc3cc5c(cc34)C(=O)N(C3CCC(=O)NC3=O)C5=O)C2)c(F)c1 (stereo partly drawn) [Compound 125]
pIC50 (VCaP cells; VCaP, 168 h): 5.03 | pIC50 (LNCaP FGC cells; [5]): 5.16

CC1(C)C(=O)N(c2ccc(C#N)c(C(F)(F)F)c2)C(=S)N1c1ccc(C(=O)N2CCC3(CCC(N4CCC5(CC4)COc4cc6c(cc4C5)C(=O)N(C4CCC(=O)NC4=O)C6=O)CC3)C2)c(F)c1 (stereo not drawn) [Compound 130]
pIC50 (VCaP cells; VCaP, 168 h): 5.44 | pIC50 (LNCaP FGC cells; [5]): 5.58

COC1(CN2CCC3(CCc4cc5c(cc4O3)C(=O)N(C3CCC(=O)NC3=O)C5)CC2)CCN(c2ccc(C(=O)N[C@H]3CC[C@H](Oc4ccc(C#N)c(Cl)c4)CC3)nn2)CC1 (stereo partly drawn) [Compound 131]
pIC50 (VCaP cells; [1]): 5.64 | pIC50 (LNCaP FGC cells; [2]): 5.34

N#Cc1ccc(O[C@H]2CC[C@H](NC(=O)c3ccc(N4CCC5(CC4)CC(N4CCC6(CC4)COc4c6ccc6c4C(=O)N(C4CCC(=O)NC4=O)C6=O)C5)nn3)CC2)cc1Cl (stereo partly drawn) [Compound 143]
pIC50 (VCaP cells; [1]): 7.70 | pIC50 (LNCaP FGC cells; [2]): 6.46

N#Cc1ccc(O[C@H]2CC[C@H](NC(=O)c3ccc(N4CCC(N5CCC(C(=O)N6CCC7(CC6)COc6c7ccc7c6CN(C6CCC(=O)NC6=O)C7=O)CC5)CC4)nn3)CC2)cc1Cl (stereo partly drawn) [Compound 160]
pIC50 (VCaP cells; [1]): 8.70 | pIC50 (LNCaP FGC cells; [2]): 4.22 | inhibition at 0.01 µM (AR protein; [3]): 67% | inhibition at 0.1 µM (AR protein; [4]): 76%

N#Cc1ccc(O[C@H]2CC[C@H](NC(=O)c3ccc(N4CCC(F)(CN5CCC6(CCc7ccc8c(c7O6)C(=O)N(C6CCC(=O)NC6=O)C8)CC5)CC4)nn3)CC2)cc1Cl (stereo partly drawn) [Compound 163]
pIC50 (VCaP cells; [1]): 6.19 | pIC50 (LNCaP FGC cells; [2]): 4.87

N#Cc1ccc(O[C@H]2CC[C@H](NC(=O)c3ccc(N4CC5(CCC(N6CCC(N7CCC8(CC7)COc7c8ccc8c7CN(C7CCC(=O)NC7=O)C8=O)CC6)CC5)C4)nn3)CC2)cc1Cl (stereo partly drawn) [Compound 175]
pIC50 (VCaP cells; VCaP, 168 h): 8.00 | pIC50 (LNCaP FGC cells; [5]): 5.09

COC1(CN2CCC3(CC2)COc2c(ccc4c2C(=O)N(C2CCC(=O)NC2=O)C4)C3)CCN(c2ccc(C(=O)NC3CCC(Oc4ccc(C#N)c(Cl)c4)CC3)nn2)CC1 (stereo not drawn) [Compound 186]
pIC50 (VCaP cells; [1]): 7.70 | pIC50 (LNCaP FGC cells; [2]): 6.07

COC1(CN2CCC3(CC2)Cc2cc4c(cc2O3)C(=O)N(C2CCC(=O)NC2=O)C4=O)CCN(c2ccc(C(=O)N[C@H]3CC[C@H](Oc4ccc(C#N)c(Cl)c4)CC3)nn2)CC1 (stereo partly drawn) [Compound 199]
pIC50 (VCaP cells; [1]): 6.24 | pIC50 (LNCaP FGC cells; [2]): 5.95
